Laboratory results published in patent US12319666B2, “Hydrate of dimethylaminomicheliolide fumarate and preparation method therefor and use thereof” (priority 2020, dated 2025).

What was measured:
[1] = cited from earlier work
[2] = background statement; cited from earlier work
[3] = Solubility in solvents (qualitative); format: physicochemical
[4] = Crystal particle size (scanning electron micrograph of crystal morphology); format: physicochemical; conditions: for average particle size: crystal product, SEM
Procedure: (§1) The crystal habit of the hydrate of dimethylaminomicheliolide fumarate is studied in the present disclosure, and a scanning electron micrograph thereof is shown in FIG. 3. —The crystal has a regular block crystal habit, and the surface of the particle is smooth without agglomeration, meanwhile, the crystal has a large average particle size that can reach 300 μm, a bulk density of 0.65 g/mL, and an angle of repose of 32°. The product features high bulk density and good fluidity. In comparison, the crystalline form A prepared using the natural cooling recrystallization method disclosed in patent CN103724307B has a primary particle size of 35.8 μm, a bulk density of mere 0.270 g/mL and an angle of repose of 62°, and a scanning electron micrograph thereof is shown in FIG. 4.

[5] = Angle of repose (fluidity); format: physicochemical; conditions: crystal product without auxiliary materials
Procedure: as §1
The hydrate of the present disclosure has good fluidity and is more suitable for being prepared as a medicament at a later stage. It is well known that the fluidity of an active ingredient per se is generally hard to meet the filling conditions of capsules or microcapsules, and auxiliary materials such as pregelatinized starch, silica and magnesium stearate are required to meet the requirements for fluidity by the filling conditions so as to achieve the desired quality of dosage forms and production efficiency. Taking the specification of 100 mg capsules as an example, if other forms such as crystalline form A are used as active ingredients, the weight of capsule contents reaches about 310 mg after auxiliary materials are added, and thus the largest 0 # capsule shell must be used, and larger specification such as capsules containing 200 mg of active ingredients cannot be prepared.

[6] = Bulk density of crystal product; format: physicochemical
Procedure: as §1

[7] = Stability of the hydrate at 45° C., humidity 75%, 30 days (XRD and purity analysis); format: physicochemical
Procedure: The stability of the hydrate of dimethylaminomicheliolide fumarate is investigated in the present disclosure. The […] crystal compound product is uniformly distributed in an open Petri dish. The temperature is controlled at 45° C., the humidity is 75%, and the sample thickness is less than 5 mm. The Petri dish is hermetically placed in a drier for 30 days. Then the samples placed for 7, 14 and 30 days were examined by XRD and compared with the results on day 0. […] Meanwhile, the samples at days 7, 14 and 30 are subjected to purity analysis. […] By combining the XRD patterns and the results of the purity analysis, the hydrate of dimethylaminomicheliolide fumarate is shown to have good stability.

| SMILES | average particle size [4] [μm] | angle of repose [5] [°] | bulk density [6] [g/mL] | further results |
| --- | --- | --- | --- | --- |
| CC1=C2CC[C@@](C)(O)[C@@H]2[C@H]2OC(=O)[C@@H](CN(C)C)[C@@H]2CC1 [DMAMCL, dimethylaminomicheliolide] | – | – | – | stability on long-term storage ([1]; background statement): unstable; solubility in water [2]: improved solubility in water to a certain degree relative to MCL |
| CC1=C2CC[C@@](C)(O)[C@@H]2[C@H]2OC(=O)[C@@H](CN(C)C)[C@@H]2CC1.O=C(O)/C=C/C(=O)O [Dimethylaminomicheliolide fumarate] | – | – | – | solubility ([3]; in cyclohexane, n-hexane, n-heptane, dichloromethane, isopropyl ether and toluene): almost insoluble; solubility ([3]; in water, methanol, ethanol, tetrahydrofuran, 1,4-dioxane, acetone, acetonitrile and isopropyl acetate): soluble |
| CC1=C2CC[C@@](C)(O)[C@@H]2[C@H]2OC(=O)[C@@H](CN(C)C)[C@@H]2CC1.O=C(O)/C=C/C(=O)O [Example 1, hydrate of dimethylaminomicheliolide fumarate] | ≤ 300 | 32.5 | 0.646 | – |
| CC1=C2CC[C@@](C)(O)[C@@H]2[C@H]2OC(=O)[C@@H](CN(C)C)[C@@H]2CC1.O=C(O)/C=C/C(=O)O [Example 2, hydrate of dimethylaminomicheliolide fumarate] | ≤ 300 | 32 | 0.655 | – |
| CC1=C2CC[C@@](C)(O)[C@@H]2[C@H]2OC(=O)[C@@H](CN(C)C)[C@@H]2CC1.O=C(O)/C=C/C(=O)O [Example 3, hydrate of dimethylaminomicheliolide fumarate] | ≤ 300 | 32 | 0.65 | – |
| CC1=C2CC[C@@](C)(O)[C@@H]2[C@H]2OC(=O)[C@@H](CN(C)C)[C@@H]2CC1.O=C(O)/C=C/C(=O)O [Example 4, hydrate of dimethylaminomicheliolide fumarate] | ≤ 300 | 32.2 | 0.659 | – |
| CC1=C2CC[C@@](C)(O)[C@@H]2[C@H]2OC(=O)[C@@H](CN(C)C)[C@@H]2CC1.O=C(O)/C=C/C(=O)O [Example 5, hydrate of dimethylaminomicheliolide fumarate] | ≤ 300 | 32 | 0.645 | – |
| CC1=C2CC[C@@](C)(O)[C@@H]2[C@H]2OC(=O)[C@@H](CN(C)C)[C@@H]2CC1.O=C(O)/C=C/C(=O)O [Example 6, hydrate of dimethylaminomicheliolide fumarate] | ≤ 300 | 32.3 | 0.65 | – |
| CC1=C2CC[C@@](C)(O)[C@@H]2[C@H]2OC(=O)[C@@H](CN(C)C)[C@@H]2CC1.O=C(O)/C=C/C(=O)O [Example 7, hydrate of dimethylaminomicheliolide fumarate] | ≤ 300 | 32 | 0.65 | – |
| CC1=C2CC[C@@](C)(O)[C@@H]2[C@H]2OC(=O)[C@@H](CN(C)C)[C@@H]2CC1.O=C(O)/C=C/C(=O)O [Example 8, hydrate of dimethylaminomicheliolide fumarate] | ≤ 300 | 32.1 | 0.654 | – |
| CC1=C2CC[C@@](C)(O)[C@@H]2[C@H]2OC(=O)[C@@H](CN(C)C)[C@@H]2CC1.O=C(O)/C=C/C(=O)O [Example 9, hydrate of dimethylaminomicheliolide fumarate] | ≤ 300 | 32.3 | 0.645 | – |
| CC1=C2CC[C@@](C)(O)[C@@H]2[C@H]2OC(=O)[C@@H](CN(C)C)[C@@H]2CC1.O=C(O)/C=C/C(=O)O [crystalline form A, dimethylaminomicheliolide fumarate] | – | 62 | 0.270 | primary particle size ([4]; form A from natural cooling recrystallization, method of CN103724307B): 35.8 μm; stability of the crystalline form ([1]; prone to transformation): poor stability |
| CC1=C2CC[C@@](C)(O)[C@@H]2[C@H]2OC(=O)[C@@H](CN(C)C)[C@@H]2CC1.O=C(O)/C=C/C(=O)O [hydrate of dimethylaminomicheliolide fumarate] | ≤ 300 | 32 | 0.65 | angle of repose ([5]; listed as hydrate of dimethylaminomicheliolide fumarate in the crystalline form D): 32 °; change in purity vs day 0 ([7]; day 7): 0.015%; change in purity vs day 0 ([7]; day 14): 0.027%; change in purity vs day 0 ([7]; day 30): 0.046%; change in the XRD pattern ([7]; days 7, 14 and 30 vs day 0): no significant change |
| C=C1C(=O)O[C@H]2[C@H]1CCC(C)=C1CC[C@@](C)(O)[C@@H]12 [micheliolide] | – | – | – | solubility in water [2]: poor solubility in water |
